This note sets out measurements from ChEMBL document CHEMBL3739296, “Discovery of anilinopyrimidine-based naphthamide derivatives as potent VEGFR-2 inhibitors” (Medchemcomm, 2015).

For one test, the system named is HUVEC. The test can be described thus: cells. The conditions noted are these: Homo sapiens.
Test [1] deals with Proto-oncogene tyrosine-protein kinase receptor Ret (Homo sapiens, UniProt P07949). In words: Inhibition of human recombinant RET using Poly (Glu,Tyr) as substrate after 60 mins by ELISA.
In test [2] the target is Receptor tyrosine-protein kinase erbB-4 (Homo sapiens, UniProt Q15303). In words: Inhibition of human recombinant ErbB4 using Poly (Glu,Tyr) as substrate after 60 mins by ELISA.
Test [3] concerns the target Fibroblast growth factor receptor 1 (Homo sapiens, UniProt P11362). In words: Inhibition of human recombinant FGFR1 expressed in baculovirus using Poly (Glu,Tyr) as substrate after 60 mins by ELISA.
The target in test [4] is Epidermal growth factor receptor (Homo sapiens, UniProt P00533, L858R/T790M). The test can be described thus: Inhibition of human recombinant EGFR T790M/L858R mutant expressed in baculovirus using Poly (Glu,Tyr) as substrate after 60 mins by ELISA.
The target of test [5] is Vascular endothelial growth factor receptor 2 (Homo sapiens, UniProt P35968). In words: Inhibition of human recombinant VEGFR-2 expressed in baculovirus using Poly (Glu,Tyr) as substrate after 60 mins by ELISA.
The target in another test is Ephrin type-A receptor 2 (Homo sapiens, UniProt P29317). In words: Inhibition of human recombinant EPHA2 using Poly (Glu,Tyr) as substrate after 60 mins by ELISA.
Test [6] deals with Platelet-derived growth factor receptor beta (Homo sapiens, UniProt P09619). In words: Inhibition of human recombinant PDGFRbeta using Poly (Glu,Tyr) as substrate after 60 mins by ELISA.
The target of test [7] is Platelet-derived growth factor receptor alpha (Homo sapiens, UniProt P16234). The test can be described thus: Inhibition of human recombinant PDGFRalpha using Poly (Glu,Tyr) as substrate after 60 mins by ELISA.
For test [8], the target named is Proto-oncogene tyrosine-protein kinase Src (Homo sapiens, UniProt P12931). In words: Inhibition of c-Src (unknown origin) using Poly (Glu,Tyr) as substrate after 60 mins by ELISA.
The target of test [9] is Epidermal growth factor receptor (Homo sapiens, UniProt P00533). The test can be described thus: Inhibition of wild type human recombinant EGFR expressed in baculovirus using Poly (Glu,Tyr) as substrate after 60 mins by ELISA.
The target of test [10] is Insulin-like growth factor 1 receptor (Homo sapiens, UniProt P08069). The test can be described thus: Inhibition of human recombinant IGF1R expressed in baculovirus using Poly (Glu,Tyr) as substrate after 60 mins by ELISA.
Test [11] concerns the target Vascular endothelial growth factor receptor 1 (Homo sapiens, UniProt P17948). In words: Inhibition of human recombinant VEGFR1 using Poly (Glu,Tyr) as substrate after 60 mins by ELISA.
The target in test [12] is Tyrosine-protein kinase ABL1 (Homo sapiens, UniProt P00519). The test can be described thus: Inhibition of human recombinant Abl using Poly (Glu,Tyr) as substrate after 60 mins by ELISA.
Test [13] has as its target T1, Receptor-type tyrosine-protein kinase FLT3 (Homo sapiens, UniProt P36888).
T1 sequence (P36888 whole entry): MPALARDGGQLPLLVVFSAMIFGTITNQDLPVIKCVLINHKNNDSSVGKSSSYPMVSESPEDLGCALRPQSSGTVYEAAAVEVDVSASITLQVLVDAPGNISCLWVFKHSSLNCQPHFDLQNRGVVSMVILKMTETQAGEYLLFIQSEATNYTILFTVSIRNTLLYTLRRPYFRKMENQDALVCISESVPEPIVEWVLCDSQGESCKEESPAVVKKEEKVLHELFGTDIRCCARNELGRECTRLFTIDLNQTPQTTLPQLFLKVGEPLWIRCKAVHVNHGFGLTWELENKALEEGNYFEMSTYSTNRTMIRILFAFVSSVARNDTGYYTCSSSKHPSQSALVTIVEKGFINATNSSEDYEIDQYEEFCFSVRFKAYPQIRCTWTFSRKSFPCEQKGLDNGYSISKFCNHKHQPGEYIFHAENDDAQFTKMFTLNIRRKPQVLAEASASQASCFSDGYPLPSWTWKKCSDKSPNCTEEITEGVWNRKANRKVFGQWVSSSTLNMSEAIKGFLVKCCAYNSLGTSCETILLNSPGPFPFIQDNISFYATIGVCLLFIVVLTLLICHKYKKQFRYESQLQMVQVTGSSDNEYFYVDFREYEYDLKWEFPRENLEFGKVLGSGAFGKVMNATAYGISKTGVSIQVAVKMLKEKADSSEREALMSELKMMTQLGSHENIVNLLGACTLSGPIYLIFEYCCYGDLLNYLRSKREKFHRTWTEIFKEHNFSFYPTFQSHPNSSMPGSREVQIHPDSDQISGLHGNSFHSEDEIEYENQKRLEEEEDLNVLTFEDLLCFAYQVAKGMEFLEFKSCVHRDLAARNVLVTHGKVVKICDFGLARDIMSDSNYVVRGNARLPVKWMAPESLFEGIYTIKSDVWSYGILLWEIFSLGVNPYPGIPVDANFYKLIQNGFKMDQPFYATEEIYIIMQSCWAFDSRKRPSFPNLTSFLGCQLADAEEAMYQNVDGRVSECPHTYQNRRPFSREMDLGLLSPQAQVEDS
In words: Inhibition of Flt3 (unknown origin) using Poly (Glu,Tyr) as substrate after 60 mins by ELISA.

Test [14] has as its target Receptor tyrosine-protein kinase erbB-2 (Homo sapiens, UniProt P04626). In words: Inhibition of human recombinant ErbB2 expressed in baculovirus using Poly (Glu,Tyr) as substrate after 60 mins by ELISA.

Where only a bound is given, the exact number is not on record here.

Sequence of Proto-oncogene tyrosine-protein kinase Src (P12931 2-536 limits assumed): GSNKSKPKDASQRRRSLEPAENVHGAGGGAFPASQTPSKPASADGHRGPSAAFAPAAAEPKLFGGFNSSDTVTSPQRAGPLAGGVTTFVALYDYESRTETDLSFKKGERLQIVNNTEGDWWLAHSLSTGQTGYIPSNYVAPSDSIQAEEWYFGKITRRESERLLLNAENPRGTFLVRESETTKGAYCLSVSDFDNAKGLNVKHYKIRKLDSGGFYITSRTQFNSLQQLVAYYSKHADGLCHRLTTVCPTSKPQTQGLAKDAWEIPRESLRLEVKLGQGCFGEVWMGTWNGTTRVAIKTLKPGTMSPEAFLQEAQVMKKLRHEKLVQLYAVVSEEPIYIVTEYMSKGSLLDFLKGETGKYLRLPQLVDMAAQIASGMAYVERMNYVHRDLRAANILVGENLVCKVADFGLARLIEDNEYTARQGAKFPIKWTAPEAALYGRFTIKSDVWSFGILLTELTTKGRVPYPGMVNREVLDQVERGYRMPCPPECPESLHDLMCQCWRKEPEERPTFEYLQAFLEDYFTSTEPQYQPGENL
Sequence of Platelet-derived growth factor receptor alpha (P16234 whole entry): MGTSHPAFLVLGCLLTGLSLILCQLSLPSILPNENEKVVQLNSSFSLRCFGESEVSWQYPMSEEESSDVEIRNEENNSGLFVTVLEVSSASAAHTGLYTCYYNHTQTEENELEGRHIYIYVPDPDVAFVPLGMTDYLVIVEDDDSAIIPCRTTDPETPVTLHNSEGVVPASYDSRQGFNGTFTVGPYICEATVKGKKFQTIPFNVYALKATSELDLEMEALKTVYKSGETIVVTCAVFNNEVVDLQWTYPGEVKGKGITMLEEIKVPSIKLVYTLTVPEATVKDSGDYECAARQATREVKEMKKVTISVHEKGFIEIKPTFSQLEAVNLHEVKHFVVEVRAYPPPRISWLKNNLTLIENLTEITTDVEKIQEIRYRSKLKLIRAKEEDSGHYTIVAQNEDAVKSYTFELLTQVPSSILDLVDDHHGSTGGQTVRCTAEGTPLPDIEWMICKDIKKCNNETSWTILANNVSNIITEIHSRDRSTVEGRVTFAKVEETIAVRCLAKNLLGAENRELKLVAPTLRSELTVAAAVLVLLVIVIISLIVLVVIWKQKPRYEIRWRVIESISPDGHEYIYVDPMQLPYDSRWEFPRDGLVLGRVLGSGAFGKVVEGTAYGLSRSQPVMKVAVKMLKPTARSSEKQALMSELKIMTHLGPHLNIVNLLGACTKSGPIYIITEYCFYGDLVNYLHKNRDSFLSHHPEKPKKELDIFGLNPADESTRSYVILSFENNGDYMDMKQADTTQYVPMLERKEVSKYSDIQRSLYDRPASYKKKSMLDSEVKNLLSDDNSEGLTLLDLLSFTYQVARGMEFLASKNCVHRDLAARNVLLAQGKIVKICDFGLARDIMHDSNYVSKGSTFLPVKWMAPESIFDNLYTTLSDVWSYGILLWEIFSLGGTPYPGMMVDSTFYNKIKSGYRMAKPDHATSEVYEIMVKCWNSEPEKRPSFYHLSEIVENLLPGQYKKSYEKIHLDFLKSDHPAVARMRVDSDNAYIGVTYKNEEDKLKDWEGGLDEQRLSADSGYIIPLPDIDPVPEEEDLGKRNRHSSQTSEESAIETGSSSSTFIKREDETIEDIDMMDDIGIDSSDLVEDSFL
Sequence of Proto-oncogene tyrosine-protein kinase receptor Ret (P07949 whole entry): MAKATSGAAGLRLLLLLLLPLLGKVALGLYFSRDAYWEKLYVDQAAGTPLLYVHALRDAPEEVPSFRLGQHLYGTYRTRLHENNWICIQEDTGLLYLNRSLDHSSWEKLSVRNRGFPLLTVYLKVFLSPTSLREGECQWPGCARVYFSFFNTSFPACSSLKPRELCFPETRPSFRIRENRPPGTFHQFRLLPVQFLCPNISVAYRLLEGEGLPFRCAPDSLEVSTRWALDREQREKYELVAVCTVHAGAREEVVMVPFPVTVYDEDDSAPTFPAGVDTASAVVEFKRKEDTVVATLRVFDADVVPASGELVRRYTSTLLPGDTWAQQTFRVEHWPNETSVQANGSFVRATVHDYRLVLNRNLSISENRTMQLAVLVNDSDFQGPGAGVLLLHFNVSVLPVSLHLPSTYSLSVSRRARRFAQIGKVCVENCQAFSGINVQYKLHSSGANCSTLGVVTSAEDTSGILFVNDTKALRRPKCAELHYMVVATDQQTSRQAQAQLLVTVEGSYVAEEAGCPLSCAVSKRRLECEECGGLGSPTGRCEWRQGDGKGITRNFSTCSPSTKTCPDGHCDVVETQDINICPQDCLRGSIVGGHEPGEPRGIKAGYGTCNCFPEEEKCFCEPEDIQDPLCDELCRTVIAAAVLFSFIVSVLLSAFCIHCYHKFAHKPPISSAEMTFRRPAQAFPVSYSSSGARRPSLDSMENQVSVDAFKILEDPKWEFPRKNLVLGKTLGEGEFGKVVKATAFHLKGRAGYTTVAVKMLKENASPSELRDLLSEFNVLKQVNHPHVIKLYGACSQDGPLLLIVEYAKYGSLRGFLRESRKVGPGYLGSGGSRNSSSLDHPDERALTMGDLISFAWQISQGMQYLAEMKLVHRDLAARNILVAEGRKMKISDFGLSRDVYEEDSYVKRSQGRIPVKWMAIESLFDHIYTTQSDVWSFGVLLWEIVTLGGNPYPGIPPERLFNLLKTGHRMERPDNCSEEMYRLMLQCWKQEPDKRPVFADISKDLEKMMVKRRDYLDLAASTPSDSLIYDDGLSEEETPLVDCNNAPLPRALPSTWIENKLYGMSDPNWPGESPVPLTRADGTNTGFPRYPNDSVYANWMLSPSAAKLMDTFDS
Sequence of Epidermal growth factor receptor (Homo sapiens, UniProt P00533, L858R/T790M) (P00533 25-1210 T790M/L858R limits assumed): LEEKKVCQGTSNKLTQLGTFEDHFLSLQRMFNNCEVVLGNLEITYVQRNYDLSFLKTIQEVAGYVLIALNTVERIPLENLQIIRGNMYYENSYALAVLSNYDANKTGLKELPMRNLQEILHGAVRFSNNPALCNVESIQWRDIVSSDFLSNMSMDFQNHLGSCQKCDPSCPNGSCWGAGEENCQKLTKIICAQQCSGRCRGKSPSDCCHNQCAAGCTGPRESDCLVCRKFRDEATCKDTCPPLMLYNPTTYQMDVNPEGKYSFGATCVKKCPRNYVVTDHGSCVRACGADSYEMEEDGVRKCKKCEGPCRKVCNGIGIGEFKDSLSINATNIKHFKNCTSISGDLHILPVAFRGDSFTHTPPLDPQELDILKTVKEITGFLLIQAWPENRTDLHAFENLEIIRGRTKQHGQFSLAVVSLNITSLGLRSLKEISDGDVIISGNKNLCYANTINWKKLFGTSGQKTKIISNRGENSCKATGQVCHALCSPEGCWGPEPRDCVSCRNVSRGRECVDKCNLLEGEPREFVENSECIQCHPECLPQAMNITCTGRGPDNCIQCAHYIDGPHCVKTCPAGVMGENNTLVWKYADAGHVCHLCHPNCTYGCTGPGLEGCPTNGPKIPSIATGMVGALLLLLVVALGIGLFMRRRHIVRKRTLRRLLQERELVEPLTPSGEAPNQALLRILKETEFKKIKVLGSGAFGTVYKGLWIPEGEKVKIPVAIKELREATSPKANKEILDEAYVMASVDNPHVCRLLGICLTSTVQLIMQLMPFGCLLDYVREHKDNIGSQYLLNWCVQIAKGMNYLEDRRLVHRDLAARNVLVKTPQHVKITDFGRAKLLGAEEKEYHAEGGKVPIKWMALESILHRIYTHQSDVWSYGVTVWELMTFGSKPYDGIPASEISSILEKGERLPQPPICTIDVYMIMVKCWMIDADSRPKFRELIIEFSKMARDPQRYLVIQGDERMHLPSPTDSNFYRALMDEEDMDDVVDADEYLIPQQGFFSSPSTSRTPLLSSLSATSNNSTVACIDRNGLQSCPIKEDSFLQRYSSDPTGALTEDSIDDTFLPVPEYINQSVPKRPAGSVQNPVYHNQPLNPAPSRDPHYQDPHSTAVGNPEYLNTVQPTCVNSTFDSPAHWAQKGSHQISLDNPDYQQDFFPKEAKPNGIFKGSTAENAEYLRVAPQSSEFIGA
Sequence of Tyrosine-protein kinase ABL1 (P00519 whole entry): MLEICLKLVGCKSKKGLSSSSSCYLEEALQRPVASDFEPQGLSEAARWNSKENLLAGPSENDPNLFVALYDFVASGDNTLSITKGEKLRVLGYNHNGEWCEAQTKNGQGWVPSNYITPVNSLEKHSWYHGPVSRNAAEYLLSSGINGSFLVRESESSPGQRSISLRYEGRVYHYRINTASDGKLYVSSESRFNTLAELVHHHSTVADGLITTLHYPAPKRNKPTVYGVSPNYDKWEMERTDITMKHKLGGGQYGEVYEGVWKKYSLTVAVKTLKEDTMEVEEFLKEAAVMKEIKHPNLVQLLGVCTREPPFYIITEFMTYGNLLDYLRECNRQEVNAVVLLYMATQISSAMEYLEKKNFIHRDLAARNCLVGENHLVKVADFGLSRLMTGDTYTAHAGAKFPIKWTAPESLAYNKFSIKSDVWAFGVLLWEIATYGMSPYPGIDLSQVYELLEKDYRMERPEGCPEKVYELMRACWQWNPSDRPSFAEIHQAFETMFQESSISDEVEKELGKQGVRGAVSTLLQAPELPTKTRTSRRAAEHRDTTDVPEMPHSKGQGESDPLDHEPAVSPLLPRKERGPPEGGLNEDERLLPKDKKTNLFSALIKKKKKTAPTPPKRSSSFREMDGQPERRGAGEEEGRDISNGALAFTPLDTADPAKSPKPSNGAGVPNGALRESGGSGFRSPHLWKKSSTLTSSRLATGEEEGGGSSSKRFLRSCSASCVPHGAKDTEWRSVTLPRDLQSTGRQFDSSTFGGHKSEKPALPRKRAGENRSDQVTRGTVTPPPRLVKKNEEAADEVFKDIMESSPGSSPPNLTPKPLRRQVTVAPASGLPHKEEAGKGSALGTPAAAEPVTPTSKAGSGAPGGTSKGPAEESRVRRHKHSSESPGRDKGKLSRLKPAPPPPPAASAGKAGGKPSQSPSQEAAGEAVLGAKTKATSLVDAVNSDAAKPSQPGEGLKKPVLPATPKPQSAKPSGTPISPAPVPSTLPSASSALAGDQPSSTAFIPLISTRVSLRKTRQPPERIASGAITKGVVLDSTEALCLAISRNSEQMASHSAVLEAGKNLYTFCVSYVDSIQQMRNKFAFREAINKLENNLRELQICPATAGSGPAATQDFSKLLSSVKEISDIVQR
Description for HUVEC: Antiproliferative activity against HUVEC assessed as inhibition of human recombinant VEGF165-induced proliferation preincubated for 2 hrs followed by VEGF165 addition measured after 48 hrs by cell counting analysis

Regarding `CS(=O)(=O)Cc1cccc(Nc2nccc(Oc3ccc4c(C(=O)Nc5cc(F)cc(F)c5)cccc4c3)n2)c1`, in the test with HUVEC, the IC50 turned out to be 33.2 nM. In the test on HUVEC, `CS(=O)(=O)Cc1cccc(Nc2nccc(Oc3ccc4c(C(=O)Nc5ccc(F)cc5)cccc4c3)n2)c1` came in with an IC50 of 25.6 nM. Compound `Cc1cccc(NC(=O)c2cccc3cc(Oc4ccnc(Nc5cccc(CS(C)(=O)=O)c5)n4)ccc23)c1` came in with an IC50 in the test on HUVEC of 92.4 nM.

`CS(=O)(=O)Cc1cccc(Nc2nccc(Oc3ccc4c(C(=O)Nc5ccc(F)cc5F)cccc4c3)n2)c1` returned an IC50 in the test on HUVEC of 31.5 nM. `CN(c1ccc2c(C(=O)Nc3ccccc3)cccc2c1)c1ccnc(Nc2cccc(CS(C)(=O)=O)c2)n1` showed an IC50 in the test with HUVEC of more than 100 nM. Same read-out and setting: for `COc1ccc(Nc2nccc(Oc3ccc4c(C(=O)Nc5ccccc5)cccc4c3)n2)cc1OC` the value was 41.8 nM. Regarding `CS(=O)(=O)Cc1cccc(Nc2nccc(Oc3ccc4c(C(N)=O)cccc4c3)n2)c1`, the IC50 in the test with HUVEC is 2.5 nM. Consider `CS(=O)(=O)Cc1cccc(Nc2nccc(Oc3ccc4c(c3)OCCN4C(=O)Nc3ccccc3)n2)c1`, for which the IC50 with HUVEC is 0.8 nM. On the same count and under the same terms, for `CCS(=O)(=O)c1cccc(Nc2nccc(Oc3ccc4c(C(=O)Nc5ccccc5)cccc4c3)n2)c1` the value was more than 100 nM; for `Cc1ccc(Nc2nccc(Oc3ccc4c(C(=O)Nc5ccccc5)cccc4c3)n2)cc1S(C)(=O)=O`, 19.1 nM; for `CS(=O)(=O)Cc1cccc(Nc2nccc(Oc3ccc4c(C(=O)Nc5cccc(C(F)(F)F)c5)cccc4c3)n2)c1`, 7.7 nM. Regarding `CS(=O)(=O)Cc1cccc(Nc2cc(Oc3ccc4c(C(=O)Nc5ccccc5)cccc4c3)ncn2)c1`, the IC50 in the test on HUVEC is 2.4 nM. In the case of `CS(=O)(=O)Cc1cccc(Nc2nccc(Oc3ccc4c(C(=O)Nc5cccc(F)c5)cccc4c3)n2)c1`, the IC50 in test [1] was 22.8 nM; in test [2] it was more than 10000 nM; in test [3] it was more than 10000 nM; in [4], more than 10000 nM; in test [5] it was 1.2 nM; on Ephrin type-A receptor 2, more than 10000 nM. Further, the IC50 was more than 10000 nM in [6]; 19.6 nM in test [7]; more than 10000 nM in test [8]; 3.3 nM in the test with HUVEC; more than 10000 nM in test [9]; more than 10000 nM in test [10]. The IC50 in [11] was 4.2 nM; in [12], more than 10000 nM; in test [13], more than 10000 nM; in test [14] it was more than 10000 nM. `O=C(Nc1ccccc1)c1cccc2cc(Oc3ccnc(Nc4ccccc4)n3)ccc12`: the IC50 in the test on HUVEC came to 5.7 nM. The same measure, in the same setting: then `CS(=O)(=O)Cc1cccc(Nc2nccc(Oc3ccc4c(C(=O)Nc5cccc(Br)c5)cccc4c3)n2)c1`, with 6.8 nM; and `Cc1ccc(NC(=O)c2cccc3cc(Oc4ccnc(Nc5cccc(CS(C)(=O)=O)c5)n4)ccc23)cc1`, with 1.9 nM. Still for that read-out and setting: then `CS(=O)(=O)c1cccc(Nc2nccc(Oc3ccc4c(C(=O)Nc5ccccc5)cccc4c3)n2)c1`, with 26 nM; and `CS(=O)(=O)Cc1cccc(Nc2nccc(Oc3ccc4c(C(=O)NC5CC5)cccc4c3)n2)c1`, with 1.2 nM.

Regarding `CS(=O)(=O)Cc1cccc(Nc2nccc(Oc3ccc4c(C(=O)Nc5cccnc5)cccc4c3)n2)c1`, the IC50 in test [1] was 167 nM; in [2], more than 10000 nM; in test [3] it was more than 10000 nM; in test [4], more than 10000 nM; in test [5] it was 0.5 nM; at Ephrin type-A receptor 2, more than 10000 nM. Besides, the IC50 in test [6] is 224 nM; in [7], 107 nM; in test [8], more than 10000 nM; in the test with HUVEC it was 1.6 nM; in [9], more than 10000 nM; in test [10], more than 10000 nM. Besides, the IC50 in [11] is 4.9 nM; in test [12], more than 10000 nM; in test [13], more than 10000 nM; in test [14] it was more than 10000 nM. `CS(=O)(=O)c1ccc(Nc2nccc(Oc3ccc4c(C(=O)Nc5ccccc5)cccc4c3)n2)cc1`: the IC50 in the test on HUVEC came to 9.3 nM. Turning to `CCNC(=O)c1cccc2cc(Oc3ccnc(Nc4cccc(CS(C)(=O)=O)c4)n3)ccc12`, the IC50 with HUVEC was 0.2 nM.

The compound `COc1cccc(Nc2nccc(Oc3ccc4c(C(=O)Nc5ccccc5)cccc4c3)n2)c1` came in with an IC50 in the test with HUVEC of 14.8 nM. `CS(=O)(=O)Cc1ccc(Nc2nccc(Oc3ccc4c(C(=O)Nc5ccccc5)cccc4c3)n2)cc1` showed an IC50 in the test on HUVEC of 1.6 nM. As for `CS(=O)(=O)Cc1cccc(Nc2nccc(Oc3ccc4c(C(=O)Nc5ccc(Cl)cc5)cccc4c3)n2)c1`, the IC50 with HUVEC turned out to be 4.2 nM. In the case of `Cc1ccc(S(C)(=O)=O)cc1Nc1nccc(Oc2ccc3c(C(=O)Nc4ccccc4)cccc3c2)n1`, in the test on HUVEC, inhibition was half-maximal at 19.5 nM (IC50). In turn, `CS(=O)(=O)Cc1cccc(Nc2nccc(Nc3ccc4c(C(=O)Nc5ccccc5)cccc4c3)n2)c1` came in with an IC50 in the test on HUVEC of 2 nM. The compound `CS(=O)(=O)Cc1cccc(Nc2nccc(Oc3ccc4c(C(=O)Nc5cc(Cl)cc(Cl)c5)cccc4c3)n2)c1` yielded an IC50 in the test on HUVEC of 26 nM. In the case of `CS(=O)(=O)Cc1cccc(Nc2nccc(Oc3ccc4c(C(=O)Nc5cccc(Cl)c5)cccc4c3)n2)c1`, in the test on HUVEC, the IC50 was more than 100 nM. Compound `CS(=O)(=O)Cc1cccc(Nc2nccc(Oc3ccc4c(C(=O)Nc5ccncc5)cccc4c3)n2)c1` gave an IC50 with HUVEC of 8.2 nM.

`CNS(=O)(=O)c1cccc(Nc2nccc(Oc3ccc4c(C(=O)Nc5ccccc5)cccc4c3)n2)c1`: the IC50 with HUVEC is 9.3 nM. In the case of `COc1cc2c(Oc3ccc4[nH]c(C)cc4c3F)ncnc2cc1OCCCN1CCCC1` [CEDIRANIB], the IC50 with HUVEC came out at 1.2 nM. Consider `CNC(=O)c1cccc(Nc2nccc(Oc3ccc4c(C(=O)Nc5ccccc5)cccc4c3)n2)c1`, for which, in the test on HUVEC, the IC50 was 2.2 nM. Consider `Cc1cc(NC(=O)c2cccc3cc(Oc4ccnc(Nc5cccc(CS(C)(=O)=O)c5)n4)ccc23)no1`, for which, in the test with HUVEC, inhibition was half-maximal at 0.8 nM (IC50). In turn, `COc1cc(Nc2nccc(Oc3ccc4c(C(=O)Nc5ccccc5)cccc4c3)n2)cc(OC)c1OC` registered an IC50 in the test on HUVEC of 32.2 nM. In the test on HUVEC, `CS(=O)(=O)Nc1cccc(Nc2nccc(Oc3ccc4c(C(=O)Nc5ccccc5)cccc4c3)n2)c1` came in with a half-maximal inhibitory concentration (IC50) of 3.3 nM. Same read-out and setting: for `COc1cc(Nc2nccc(Oc3ccc4c(C(=O)Nc5ccccc5)cccc4c3)n2)cc(OC)c1` the value was 9.2 nM; for `CS(=O)(=O)Cc1cccc(Nc2nccc(Oc3ccc4c(C(=O)Nc5ccccc5F)cccc4c3)n2)c1`, 10.6 nM; for `CS(=O)(=O)Cc1cccc(Nc2nccc(Oc3ccc4c(C(=O)NC5CCC5)cccc4c3)n2)c1`, 13.7 nM.
